Reference: ChEMBL document CHEMBL1201862, “PubChem BioAssay data set” (2004)
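Five compound concentrations were applied to cells in 96-well plates for 48 hours; endpoints were derived by simple linear interpolation of the resulting dose-response curve. At the GI50, growth is halved.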 Calls of active or inactive are those of the source. Cut-off read from the data, not from the text of the source: active = GI50 up to about 1.1 µM and inactive = higher.

Tests used:
Assay in all cases: NCI tumour cell line growth inhibition, 48 h
786-0 = tested on: 786-0
ACHN = tested on: ACHN
HCT-116 = tested on: HCT-116
IGROV-1 = tested on: IGROV-1
OVCAR-3 = tested on: OVCAR-3
RPMI-8226 = tested on: RPMI-8226
SK-MEL-28 = tested on: SK-MEL-28
SK-OV-3 = tested on: SK-OV-3
SN12C = tested on: SN12C
SNB-19 = tested on: SNB-19
SNB-75 = tested on: SNB-75
TK-10 = tested on: TK-10
U-251 = tested on: U-251
A498 = tested on: A498
KM12 = tested on: KM12
NCI-H522 = tested on: NCI-H522
OVCAR-4 = tested on: OVCAR-4

Measured: GI50

CCOC(=O)Cn1c2ccccc2c(=O)c2cc(C)c(C)c(C#N)c21
inactive: 786-0 > 100 µM | ACHN > 100 µM | HCT-116 53.5 µM | IGROV-1 > 100 µM | OVCAR-3 > 100 µM | RPMI-8226 > 100 µM | SK-MEL-28 > 100 µM | SK-OV-3 55.5 µM | SN12C > 100 µM | SNB-19 > 100 µM | SNB-75 23.2 µM | TK-10 > 100 µM | U-251 > 100 µM

Nc1c2ccccc2nc2nccnc12
inactive: 786-0 > 100 µM | A498 > 100 µM | ACHN > 100 µM | HCT-116 > 100 µM | IGROV-1 60.4 µM | KM12 > 100 µM | NCI-H522 > 100 µM | OVCAR-3 > 100 µM | OVCAR-4 > 100 µM | RPMI-8226 > 100 µM | SK-MEL-28 > 100 µM | SK-OV-3 > 100 µM | SN12C > 100 µM | SNB-19 > 100 µM | SNB-75 > 100 µM | TK-10 > 100 µM | U-251 > 100 µM

Clc1cc(Cl)c2c(Cl)cc(Cl)c3c2c1N=S=N3
inactive: 786-0 > 100 µM | A498 6.68 µM | HCT-116 > 100 µM | IGROV-1 > 100 µM | KM12 > 100 µM | NCI-H522 > 100 µM | OVCAR-3 > 100 µM | OVCAR-4 > 100 µM | RPMI-8226 > 100 µM | SK-MEL-28 > 100 µM | SK-OV-3 > 100 µM | SNB-19 > 100 µM | SNB-75 > 100 µM | TK-10 > 100 µM | U-251 > 100 µM

O=C(Nc1ccccc1Cl)c1ccc([N+](=O)[O-])cc1
inactive: 786-0 45.7 µM | A498 > 100 µM | IGROV-1 > 100 µM | KM12 > 100 µM | NCI-H522 > 100 µM | OVCAR-3 > 100 µM | RPMI-8226 > 100 µM | SK-MEL-28 > 100 µM | SK-OV-3 > 100 µM | SN12C > 100 µM | SNB-19 41.2 µM | SNB-75 22.4 µM | TK-10 > 100 µM | U-251 > 100 µM

Cc1cc2c(cc1C)[n+]([O-])c(C(=O)C/C(=N/NC(=O)c1ccccc1O)C(=O)Nc1ccccc1C(C)C)c(C)[n+]2[O-]
inactive: 786-0 88.1 µM | A498 > 100 µM | ACHN > 100 µM | HCT-116 > 100 µM | IGROV-1 > 100 µM | KM12 > 100 µM | NCI-H522 42.6 µM | OVCAR-3 37.2 µM | OVCAR-4 54.1 µM | SK-MEL-28 > 100 µM | SK-OV-3 > 100 µM | SN12C > 100 µM | SNB-19 > 100 µM | SNB-75 88.5 µM | TK-10 > 100 µM | U-251 > 100 µM

COc1ccc(-c2oc3cc(O)c(OC)c(O)c3c(=O)c2OC2OC(CO)C(O)C(O)C2O)cc1 (configuration not stated)
inactive: 786-0 > 100 µM | ACHN 91.2 µM | HCT-116 > 100 µM | IGROV-1 > 100 µM | KM12 > 100 µM | OVCAR-3 > 100 µM | OVCAR-4 > 100 µM | RPMI-8226 21.2 µM | SK-MEL-28 > 100 µM | SK-OV-3 > 100 µM | SN12C > 100 µM | SNB-19 > 100 µM | SNB-75 > 100 µM | TK-10 > 100 µM | U-251 > 100 µM

CC1=C(C)CC2(CCCCC2=O)[S+]([O-])C1 (configuration not stated)
inactive: 786-0 > 100 µM | A498 > 100 µM | ACHN > 100 µM | HCT-116 > 100 µM | IGROV-1 > 100 µM | KM12 > 100 µM | OVCAR-3 > 100 µM | OVCAR-4 > 100 µM | RPMI-8226 > 100 µM | SK-MEL-28 > 100 µM | SK-OV-3 > 100 µM | SN12C > 100 µM | SNB-19 > 100 µM | SNB-75 > 100 µM | TK-10 > 100 µM | U-251 > 100 µM

C/C(CC(=O)Nc1ccc(NC(=O)/C(C)=N/NS(=O)(=O)c2ccc(C)cc2)cc1)=N\NS(=O)(=O)c1ccc(C)cc1
inactive: 786-0 > 100 µM | A498 > 100 µM | ACHN > 100 µM | HCT-116 > 100 µM | IGROV-1 > 100 µM | KM12 > 100 µM | OVCAR-3 > 100 µM | RPMI-8226 > 100 µM | SK-MEL-28 > 100 µM | SK-OV-3 > 100 µM | SN12C > 100 µM | SNB-75 > 100 µM | TK-10 > 100 µM | U-251 > 100 µM

C[C@H]1CC[P+](C)(c2ccccc2)C1 (some centres not stated)
inactive: 786-0 > 100 µM | A498 > 100 µM | ACHN > 100 µM | HCT-116 > 100 µM | IGROV-1 > 100 µM | KM12 > 100 µM | NCI-H522 > 100 µM | OVCAR-3 > 100 µM | RPMI-8226 > 100 µM | SK-MEL-28 > 100 µM | SK-OV-3 > 100 µM | SN12C > 100 µM | SNB-19 > 100 µM | SNB-75 > 100 µM | TK-10 > 100 µM | U-251 > 100 µM

Brc1cc2c(cc1Br)CN(c1ccccc1)C2
inactive: 786-0 > 100 µM | A498 > 100 µM | ACHN > 100 µM | HCT-116 > 100 µM | IGROV-1 > 100 µM | KM12 > 100 µM | OVCAR-3 > 100 µM | OVCAR-4 > 100 µM | RPMI-8226 > 100 µM | SK-MEL-28 > 100 µM | SK-OV-3 > 100 µM | SN12C > 100 µM | SNB-19 > 100 µM | SNB-75 > 100 µM | TK-10 > 100 µM | U-251 > 100 µM

CCc1cc2c(O)c(c1)Cc1cc(CC)cc(c1O)Cc1cc(CC)cc(c1O)Cc1cc(CC)cc(c1O)Cc1cc(CC)cc(c1O)Cc1cc(CC)cc(c1O)Cc1cc(CC)cc(c1O)C2
inactive: 786-0 > 100 µM | ACHN > 100 µM | HCT-116 > 100 µM | IGROV-1 > 100 µM | KM12 > 100 µM | NCI-H522 > 100 µM | OVCAR-3 > 100 µM | OVCAR-4 > 100 µM | RPMI-8226 > 100 µM | SK-MEL-28 > 100 µM | SN12C > 100 µM | SNB-19 22.1 µM | SNB-75 28.6 µM | TK-10 > 100 µM | U-251 62.8 µM

NC(CNc1ccc(O)cc1)C(=O)O (configuration not stated)
inactive: 786-0 16 µM | A498 > 100 µM | ACHN 57.8 µM | HCT-116 > 100 µM | KM12 > 100 µM | NCI-H522 > 100 µM | OVCAR-3 > 100 µM | OVCAR-4 17.4 µM | RPMI-8226 > 100 µM | SK-MEL-28 > 100 µM | SK-OV-3 > 100 µM | SN12C > 100 µM | SNB-19 > 100 µM | SNB-75 > 100 µM | TK-10 > 100 µM | U-251 > 100 µM

N=C(N)NS(=O)(=O)c1ccc(NC(=O)c2cccc3c(Nc4ccc(S(N)(=O)=O)cc4)c4ccccc4nc23)cc1
inactive: 786-0 > 100 µM | A498 > 100 µM | ACHN > 100 µM | IGROV-1 > 100 µM | KM12 > 100 µM | NCI-H522 > 100 µM | OVCAR-3 > 100 µM | OVCAR-4 > 100 µM | RPMI-8226 > 100 µM | SK-MEL-28 > 100 µM | SK-OV-3 > 100 µM | SN12C > 100 µM | SNB-19 > 100 µM | SNB-75 > 100 µM | TK-10 > 100 µM | U-251 > 100 µM

CCCCCCCC(=O)OCC(C[As](=O)(O)O)OC(=O)CCCCCCC (configuration not stated)
inactive: 786-0 17.2 µM | A498 19.1 µM | ACHN 16.9 µM | HCT-116 16.7 µM | IGROV-1 13.8 µM | NCI-H522 13.3 µM | OVCAR-4 19.7 µM | RPMI-8226 17.6 µM | SK-MEL-28 15.7 µM | SK-OV-3 15.7 µM | SN12C 14.7 µM | SNB-19 14.8 µM | SNB-75 15.7 µM | U-251 15 µM

Brc1ccc2c(C3CN[C@@H](c4c[nH]c5cc(Br)ccc45)CN3)c[nH]c2c1 (some centres not stated)
inactive: 786-0 2.89 µM | A498 1.79 µM | ACHN 3.46 µM | HCT-116 1.69 µM | IGROV-1 5.65 µM | KM12 1.72 µM | NCI-H522 2.54 µM | OVCAR-3 6.03 µM | OVCAR-4 3.31 µM | RPMI-8226 1.89 µM | SK-MEL-28 11.3 µM | SK-OV-3 6.14 µM | SN12C 5.25 µM | SNB-19 9.46 µM | SNB-75 16.1 µM | TK-10 8.04 µM | U-251 5.37 µM

c1ccc(C2OC3(CCC[C@H]4C[C@H]43)O[C@H]2c2ccccc2)cc1 (some centres not stated)
inactive: 786-0 57 µM | A498 > 100 µM | ACHN 30.3 µM | HCT-116 31.8 µM | IGROV-1 > 100 µM | KM12 29 µM | NCI-H522 22.7 µM | OVCAR-3 37.4 µM | OVCAR-4 53.2 µM | RPMI-8226 40.3 µM | SK-OV-3 > 100 µM | SN12C 34.4 µM | SNB-19 44.4 µM | SNB-75 26.5 µM | TK-10 > 100 µM | U-251 41.1 µM

CC1C=CC(O)[C@]2(CO)CC3(CCC12)OCCO3 (some centres not stated)
inactive: 786-0 > 100 µM | A498 > 100 µM | ACHN > 100 µM | HCT-116 > 100 µM | IGROV-1 > 100 µM | KM12 > 100 µM | NCI-H522 > 100 µM | OVCAR-3 > 100 µM | OVCAR-4 > 100 µM | SK-MEL-28 > 100 µM | SK-OV-3 > 100 µM | SN12C > 100 µM | SNB-19 > 100 µM | SNB-75 > 100 µM | TK-10 > 100 µM | U-251 > 100 µM
